Values after ≈ are worked out from the molar mass of the structure shown. Like-named read-outs stand apart in the source and are kept apart here.
Legend:
MDA-MB-231 [1] = test: MTT antiproliferative assay, 72 h, with or without estradiol; assay type: cell-based, human; details: for IC50: Homo sapiens, MDA-MB-231, 72 hours exposition, MTT
Experimental: (§1) Anticancer activity of PDI A1-inhibitors has been also tested in vitro in antiproliferative essay in normoxic and hypoxic conditions as well in estrogen-stimulated cancer cells. In the experiment, cells were seeded on 96-well plates (Sarstedt, Germany) in appropriate culture medium at a density of 10^5 cells/mL 24 h before adding the tested compounds. Cells were treated with each compound in four concentrations in the range 0.1-100 ug/mL. […] After 72 h of compound treatment at 37° C., 5 % CO2 humid atmosphere and in wo different oxygen level conditions: 21% - normal and <1% - hypoxia. In some experiments, the MDA-MB-231 and MCF-7 cells were seeded with or without 200 nM estradiol and after 24 h the tested compounds were added. A previously described sulforhodamine B antiproliferative assay was used with minor modifications (Skehan P et al., 1990). Briefly, cells were fixed with 50 µL/well of 50% (w/v) trichloroacetic acid (Avantor Performance Materials, Gliwice, Poland). After 1 h incubation, plates were washed several times with tap water and 50 µL of 0.4% (w/v) solution of sulforhodamine B (Sigma-Aldrich, Germany) in 1% (v/v) acetic acid (Avantor Performance Materials, Gliwice, Poland) was added to each well. After 30 min incubation at room temperature, unbound dye was washed out with 1% (v/v) acetic acid, whereas bound dye was solubilized with 10 mM unbuffered TRIS (Avantor Performance Materials, Gliwice, Poland) solution. The entire procedure was performed using a BioTek EL-406 washing station (BioTek Instruments, USA). After additional 30 min, absorbance was read using a Biotek Hybrid H4 reader (BioTek Instruments, USA) at 540 nm wavelength. MTT assay was used alternatively for HL-60 cell line and in the experiment in which estrogens are added (specified in the table legend). Absorbance was measured using a Biotek Hybrid H4 reader at 570 nm wavelength for MTT assay.
(§2) Compounds at each concentration were tested in triplicate in a single experiment and each experiment was repeated at least three times independently.
(§3) Results of in vitro antiproliferative effects are shown in Table 3 and Table 4 and are presented as mean IC50 ± SD calculated using the Prolab-3 system based on Cheburator 0.4 software.
(§4) Statistical analysis: Unpaired t test. *p<0.05 as compared to appropriate cells not pretreated with estradiol. MTT assay was used for antiproliferative activity assessment.

MCF-7 [2] = test: as above; assay type: cell-based, human; details: for Selectivity index (SI): IC50 of MCF-10A/ IC50 of MCF-7 / IC50: 72 hours exposition; for IC50: Homo sapiens, MCF7, MTT
Experimental: as §1, §2, §3, §4

HT-29 [3] = test: MTT antiproliferative assay, 72 h; assay type: cell-based; details: Homo sapiens, 72 hours exposition, read-out: IC50 [µg/ml] HT-29 normal
Experimental: as §1, §2, §3, §4

HL-60 = test: MTT antiproliferative assay, 72 h; assay type: cell-based; details: Homo sapiens, 72 hours exposition, read-out: IC50 [µg/ml] HL-60 normal
Experimental: as §1, §2, §3, §4

[4] = system: MDA-MB-231 (human mammary breast adenocarcinoma); test: MTT antiproliferative assay, 48 h; assay type: cell-based; details: Homo sapiens, MDA-MB-231, 48-hour exposition, read-out: Cytotoxicity, IC50, µM MDA-MB-231
Experimental: (§5) About 2000-4000 cells per well (depending on line nature) were placed in 96-well plates and after 24 h compounds were added to the wells. Untreated cells were used as a control. The plates were incubated for 48 h, 37° C., 5% CO2. The number of surviving cells was determined using 3-(4,5-dimethylthiazol-2-yl)-2,5-diphenyltetrazolinium bromide (MTT). MTT-test: after incubating culture medium was removed and 200 µL fresh medium with 20 µL MTT (2 mg/mL in HBSS) was added in each well of the plate. After incubation (3 hr., 37° C., 5% CO2), the medium with MTT was removed and 200 µL DMSO were added at once to each sample. The samples were tested at 540 nm on Thermo Scientific Multiskan EX microplate photometer. The half-maximal inhibitory concentration (IC50) of each compound was calculated using Graph Pad Prism® 3.0.

[5] = system: HT-1080 (human fibrosarcoma); test: MTT antiproliferative assay, 48 h; assay type: cell-based; details: 48-hour exposition, read-out: Cytotoxicity, IC50, µM HT-1080
Experimental: as §5

[6] = system: Caco-2 (human colon adenocarcinoma); test: MTT antiproliferative assay, 48 h; assay type: cell-based; details: Homo sapiens, Caco-2, 48-hour exposition, read-out: Cytotoxicity, IC50, µM CaCo-2
Experimental: as §5

[7] = system: MCF-7 (human breast adenocarcinoma, estrogen-positive); test: MTT antiproliferative assay, 48 h; assay type: cell-based; details: Homo sapiens, MCF7, 48-hour exposition, read-out: Cytotoxicity, IC50, µM MCF-7
Experimental: as §5

PDI A1 = target: T1, PDI A1 (Homo sapiens, UniProt P07237); test: Insulin turbidometric assay, inhibition of PDI A1; assay type: biochemical; details: insulin reduction, turbidity at 650 nm, 60 min incubation at 37° C.; read-out: Inhibition of PDI A1 (EC 50)
T1 construct: purchased Mybiosource; host or cells: E. coli
Experimental: The inhibitory effects compounds of invention on activity of PDI A1 was assess based on the insulin turbidometric assay. Enzymatic activity of PDIA1 was confirmed by measuring the turbidity increase at 650 nm due to insulin reduction. The assay mixture was prepared by addition 10 ug/ml PDIA1 (E.coli recombinant protein; Mybiosource), 0.1 mM phosphate buffer (pH7.6), 1 mM EDTA, 0.087 mM DTT and with or without tested compound and was incubated for 60 min, at 37° C. Reaction was started by addition insulin and DTT. Final concentration of insulin and DTT in assay mixture was 0.15 mM and 0.174 mM, respectively. Turbidity was detected at 650 nm against reference samples without PDI A1s. The measurements were performed at 650 nm using 120-s recordings.

Caco-2 = test: Sulforhodamine B antiproliferative assay, 72 h; assay type: cell-based, human; details: normal (21% of oxygen), 72-hour exposition
HT-29 [8] = test: Sulforhodamine B antiproliferative assay, 72 h; assay type: cell-based, human; details: normal (21% of oxygen), 72-hour exposition
Experimental: as §1, §2, §3

MDA-MB-231 [9] = test: Sulforhodamine B antiproliferative assay, 72 h, normal and hypoxia; assay type: cell-based, human; details: 72-hour exposition
Experimental: as §1, §2, §3

MCF-7 [10] = test: as above; assay type: cell-based, human; details: 72-hour exposition
Experimental: as §1, §2, §3

[11] = 200 nM estradiol, read-out: IC50 [µg/ml] MDA-MB-231 + estradiol
[12] = not pretreated with estradiol, read-out: IC50 [µg/ml] MDA-MB-231 normal
[13] = 200 nM estradiol, read-out: IC50 [µg/ml] MCF-7 + estradiol
[14] = not pretreated with estradiol, read-out: IC50 [µg/ml] MCF-7 normal

T1 sequence (P07237 18-508, species assumed): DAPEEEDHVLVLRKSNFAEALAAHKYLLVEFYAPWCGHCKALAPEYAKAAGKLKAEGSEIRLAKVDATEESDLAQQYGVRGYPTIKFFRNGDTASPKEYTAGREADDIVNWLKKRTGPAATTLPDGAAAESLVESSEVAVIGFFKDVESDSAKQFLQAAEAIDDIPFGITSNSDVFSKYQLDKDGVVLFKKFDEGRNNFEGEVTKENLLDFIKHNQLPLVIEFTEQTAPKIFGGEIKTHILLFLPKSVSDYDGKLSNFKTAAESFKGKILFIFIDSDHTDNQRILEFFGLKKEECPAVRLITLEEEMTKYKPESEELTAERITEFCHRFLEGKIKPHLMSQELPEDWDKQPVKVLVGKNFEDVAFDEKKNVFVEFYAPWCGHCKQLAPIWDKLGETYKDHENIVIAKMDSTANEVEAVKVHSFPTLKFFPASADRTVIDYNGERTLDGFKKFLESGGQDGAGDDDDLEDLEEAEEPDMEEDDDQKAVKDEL

| IC50 (MDA-MB-231 [1]; [11]) [µg/mL] | IC50 (MCF-7 [2]; [13]) [µg/mL] | EC50 (PDI A1) [µM] | SMILES | IC50 (MDA-MB-231 [1]; [12]) [µg/mL] | Selectivity index (SI): IC50 of MCF-10A/ IC50 of MCF-7 (MCF-7 [2]) | IC50 (MCF-7 [2]; [14]) [µg/mL] | Change in sensitivity of MCF-7 after addition of estradiol (MCF-7 [2]; with estradiol versus without) | IC50 (HT-29 [3]) [µg/mL] | IC50 (HL-60) [µg/mL] | IC50 [4] [µM] | IC50 [5] [µM] | IC50 [6] [µM] | IC50 [7] [µM] | Change of antiproliferative activity towards MDA-MB-231 during simultaneous incubation with estradiol (MDA-MB-231 [1]; with estradiol versus without) | IC50 [µg/ml] Caco-2 normal (Caco-2) [µg/mL] | IC50 [µg/ml] HT-29 normal (HT-29 [8]) [µg/mL] | IC50 [µg/ml] MDA-MB-231 hypoxia (MDA-MB-231 [9]; hypoxia (<1% of oxygen)) [µg/mL] | IC50 [µg/ml] MDA-MB-231 normal (MDA-MB-231 [9]; normal (21% of oxygen)) [µg/mL] | IC50 [µg/ml] MCF-7 hypoxia (MCF-7 [10]; hypoxia (<1% of oxygen)) [µg/mL] | IC50 [µg/ml] MCF-7 normal (MCF-7 [10]; normal (21% of oxygen)) [µg/mL] |
| --- | --- | --- | --- | --- | --- | --- | --- | --- | --- | --- | --- | --- | --- | --- | --- | --- | --- | --- | --- | --- |
| 17.7 ± 2.1 | 10.4 ± 2.4 |  | COC(=O)C1CN1S(=O)(=O)c1cccc2c(N(C)C)cccc12 (stereo not shown) [Compound C-3326, Methyl 1-[[5-(dimethylamino)-1-naphthyl]sulfonyl]aziridine-2-carboaylate] | 15.7 ± 3.1 (≈ 47 µM) | 4.84 | 5.4 ± 1.7 (≈ 16.1 µM) | slight decrease in sensitivity | 39.2 ± 6.5 (≈ 117 µM) | 1.9 ± 0.6 (≈ 5.68 µM) | 169 ± 20 | 100 ± 5 | 170 ± 20 | 349 ± 13 |  |  |  |  |  |  |  |
| 28 ± 1.7 | 18.4 ± 4.3 | 0.03 | CCCCCCc1ccc(S(=O)(=O)N2CC2C(N)=O)cc1 (stereo not shown) [Compound C-3389, 1-(4-Hexylphenyl)sulfonylaziridine-2-carboxamide] | 23.2 ± 1 (≈ 74.7 µM) | 0.23 | 26.7 ± 4.5 (≈ 86 µM) |  | 31.2 ± 6.7 (≈ 101 µM) | 2.8 ± 0.8 (≈ 9.02 µM) | 32 ± 3 | 36 ± 3 | 49 ± 2 | 47 ± 6 | slight decrease of antiproliferative activity |  |  |  |  |  |  |
|  |  |  | O=C(C1CC1)N1CCN(Cn2sc3ccccc3c2=O)CC1 [LOC14, reference compound] |  |  |  |  |  |  |  |  |  |  |  | 9.1 ± 3.4 (≈ 28.7 µM) | 12.6 ± 8.4 (≈ 39.7 µM) | 2.6 ± 0.5 (≈ 8.19 µM) | 2.8 ± 0.4 (≈ 8.82 µM) | 3.9 ± 0.3 (≈ 12.3 µM) | 4.4 ± 0.9 (≈ 13.9 µM) |

From US20230039836A1, “AROMATIC SULPHONAMIDES DERIVATIVES THAT INHIBITS PDI A3, THEIR SYNTHESIS AND USE” (Uniwersytet Jagiellonski, priority 2020, published 2023)
